According to the CheMixHub drug solubility set:

Test: xn = mol fraction of the nth substance listed, in the solute-free solvent

O=C(O)c1ccc(C(=O)O)o1 + O + COCCOCCOC
solubility (g/100 g solution)
Details	x2 = 0.1	x2 = 0.2	x2 = 0.3	x2 = 0.4	x2 = 0.5	x2 = 0.6	x2 = 0.7	x2 = 0.8	x2 = 0.9
303.15 K	1.37	2.07	2.83	4.05	5.13	6.23	6.17	5.55	3.4
308.15 K	1.42	2.15	2.96	4.22	5.35	6.45	6.42	5.78	3.72
313.15 K	1.47	2.23	3.09	4.4	5.58	6.69	6.69	6.02	4.05
318.15 K	1.53	2.34	3.23	4.59	5.79	6.96	6.97	6.3	4.34
323.15 K	1.59	2.46	3.37	4.79	6.03	7.25	7.28	6.59	4.64
328.15 K	1.67	2.56	3.53	5	6.29	7.62	7.59	6.96	4.91
333.15 K	1.74	2.68	3.71	5.23	6.58	8.03	7.93	7.36	5.21
338.15 K	1.84	2.83	3.88	5.46	6.96	8.47	8.33	7.78	5.51
343.15 K	1.92	2.94	4.01	5.62	7.24	8.75	8.61	8.14	5.75
348.15 K	2	3.1	4.17	5.84	7.52	9.16	9.15	8.46	6.05
353.15 K	2.07	3.25	4.3	6.03	7.75	9.47	9.63	8.76	6.31

O=C(O)c1ccc(C(=O)O)o1 + C1CCOC1 + O
solubility (g/100 g solution)
Details	293.15 K	298.15 K	303.15 K	308.15 K	313.15 K	318.15 K	323.15 K	328.15 K	333.15 K
x2 = 0.1	1.53	1.63	1.73	1.9	2.08	2.35	2.63	2.88	3.15
x2 = 0.2	3.7	3.93	4.22	4.48	4.77	5.08	5.38	5.73	6.11
x2 = 0.3	4.89	5.24	5.6	5.94	6.31	6.69	7.1	7.45	7.84
x2 = 0.4	6.39	6.62	6.87	7.22	7.6	7.91	8.25	8.62	9.02
x2 = 0.5	6.7	6.95	7.21	7.48	7.76	8.1	8.47	8.86	9.32
x2 = 0.6	6.58	6.9	7.24	7.5	7.81	8.16	8.54	9.01	9.52
x2 = 0.7	6.04	6.39	6.76	7.09	7.43	7.77	8.14	8.5	8.9
x2 = 0.8	4.95	5.3	5.68	5.96	6.26	6.51	6.79	7.11	7.47
x2 = 0.9	3.55	3.67	3.81	3.98	4.16	4.33	4.51	4.74	4.98

Oc1ccc(Cl)c2cccnc12 + CCOCCO + CCO
solubility (g/100 g solution)
Details	278.15 K	283.15 K	288.15 K	293.15 K	298.15 K	303.15 K	308.15 K	313.15 K	318.15 K	323.15 K
x2 = 0.1134	1.08	1.36	1.64	1.98	2.41	2.88	3.44	4.07	4.85	5.76
x2 = 0.2542	1.61	1.9	2.21	2.69	3.17	3.76	4.43	5.22	6.15	7.04
x2 = 0.434	2.17	2.57	2.99	3.57	4.14	4.77	5.59	6.57	7.64	8.85
x2 = 0.6716	2.81	3.34	3.83	4.5	5.16	6.07	6.97	8.03	9.21	10.5

CCCCOc1ccc(C(=O)CCN2CCCCC2)cc1.Cl + CCO + O
solubility (g/100 g solution)
Details	278.15 K	283.15 K	288.15 K	293.15 K	298.15 K	303.15 K	308.15 K	313.15 K	318.15 K	323.15 K
x2 = 0.1	34.6	37.9	41.1	44.6	48.1	51.6	55.2	58.8	62.2	65.7
x2 = 0.2	33.9	37.1	40.3	43.8	47.1	50.6	54.1	57.7	61.1	64.5
x2 = 0.3	33.4	36.5	39.6	43	46.3	49.8	53.2	56.7	60.1	63.5
x2 = 0.4	33.1	36.1	39.2	42.4	45.7	49	52.4	55.9	59.4	62.7
x2 = 0.5	32.7	35.7	38.8	42	45.1	48.5	51.8	55.3	58.7	62
x2 = 0.6	32.5	35.4	38.4	41.5	44.7	48	51.3	54.7	58.2	61.5
x2 = 0.7	32.2	35.1	38.1	41.2	44.4	47.6	50.9	54.3	57.8	61
x2 = 0.8	32	35	37.9	41	44.1	47.2	50.5	53.9	57.3	60.6
x2 = 0.9	31.9	34.8	37.8	40.7	43.8	47	50.3	53.6	57	60.2

COC1=CC(=O)CC(C)C12Oc1c(Cl)c(OC)cc(OC)c1C2=O (stereo unspecified) + CC(=O)CC(C)C + CC(C)O
solubility (g/100 g solution)
Details	283.15 K	288.15 K	293.15 K	298.15 K	303.15 K	308.15 K	313.15 K	318.15 K	323.15 K
x2 = 0.1	0.154	0.185	0.226	0.307	0.335	0.47	0.53	0.62	0.76
x2 = 0.2	0.251	0.304	0.345	0.441	0.514	0.683	0.713	0.852	1.01
x2 = 0.3	0.353	0.405	0.473	0.568	0.67	0.869	0.938	1.11	1.3
x2 = 0.4	0.433	0.519	0.591	0.73	0.812	1.04	1.09	1.27	1.46
x2 = 0.5	0.533	0.589	0.688	0.841	0.939	1.19	1.23	1.42	1.62
x2 = 0.6	0.595	0.655	0.751	0.902	1.03	1.27	1.33	1.5	1.72
x2 = 0.7	0.642	0.758	0.833	0.943	1.08	1.31	1.37	1.58	1.77
x2 = 0.8	0.675	0.753	0.823	0.973	1.1	1.33	1.39	1.59	1.79
x2 = 0.9	0.675	0.727	0.817	0.955	1.1	1.29	1.35	1.51	1.68
